Measurements as given in patent publication US11427548B2 (Arvinas Operations, Inc., priority 2015, dated 2022).
Read-outs that look alike come from different tables or passages of the source.

How the values were obtained:
[1] = PROTAC subcutaneous pharmacokinetics in CD-1 mice; format: in vivo; details: male, plasma, CD-1 Mouse, 10 mg/kg SC dose; for AUC(0-t): read-out: Plasma Exposure AUC0-24; for Cmax: read-out: Plasma Exposure Cmax
Protocol: (§1) 9. PROTAC Prodrug Oral Pharmacokinetics and PROTAC Subcutaneous Phamacokinetics.
(§2) Representative Pharmacokinetic Procedure
(§3) Male CD-1 mice (6-8 weeks old, weighing 20-30 g, 3 per study) with free access to food and water were administered with the test article at 10 mg/kg either by oral gavage or sub-cutaneous injection in the formulation specified in tables 20 and 21, at 10 mL/kg.
(§4) Approximately 0.04 mL blood samples were collected from the dorsal metatarsal vein serially at 0.25, 0.5, 1, 2, 4, 8 and 24 h timepoints; heparin was used as the anticoagulant. The samples were centrifuged at 4000 g for 5 min at 4° C. then stored at −75° C. prior to analysis.
(§5) The plasma samples were analysed via an LC/MS/MS method quantitating for unchanged, administered test article, and/or a derivative species as appropriate. WinNonlin (Phoenix™) was used for the pharmacokinetic calculations and modeling, to generate parameters such as Cmax and AUC.

Androgen Receptor [2] = molecular target: T1, Androgen Receptor (Homo sapiens, UniProt P10275); assay: Androgen Receptor ELISA assay (PathScan AR ELISA) in VCaP cells: AR degradation, Dmax and DC50; format: cell-based; details: for Dmax: VCaP, read-out: VCaP Dmax (%); for DC50: read-out: VCaP DC50
T1 construct: endogenous in cells; host or cells: VCaP cells
T1 sequence (P10275 1-920): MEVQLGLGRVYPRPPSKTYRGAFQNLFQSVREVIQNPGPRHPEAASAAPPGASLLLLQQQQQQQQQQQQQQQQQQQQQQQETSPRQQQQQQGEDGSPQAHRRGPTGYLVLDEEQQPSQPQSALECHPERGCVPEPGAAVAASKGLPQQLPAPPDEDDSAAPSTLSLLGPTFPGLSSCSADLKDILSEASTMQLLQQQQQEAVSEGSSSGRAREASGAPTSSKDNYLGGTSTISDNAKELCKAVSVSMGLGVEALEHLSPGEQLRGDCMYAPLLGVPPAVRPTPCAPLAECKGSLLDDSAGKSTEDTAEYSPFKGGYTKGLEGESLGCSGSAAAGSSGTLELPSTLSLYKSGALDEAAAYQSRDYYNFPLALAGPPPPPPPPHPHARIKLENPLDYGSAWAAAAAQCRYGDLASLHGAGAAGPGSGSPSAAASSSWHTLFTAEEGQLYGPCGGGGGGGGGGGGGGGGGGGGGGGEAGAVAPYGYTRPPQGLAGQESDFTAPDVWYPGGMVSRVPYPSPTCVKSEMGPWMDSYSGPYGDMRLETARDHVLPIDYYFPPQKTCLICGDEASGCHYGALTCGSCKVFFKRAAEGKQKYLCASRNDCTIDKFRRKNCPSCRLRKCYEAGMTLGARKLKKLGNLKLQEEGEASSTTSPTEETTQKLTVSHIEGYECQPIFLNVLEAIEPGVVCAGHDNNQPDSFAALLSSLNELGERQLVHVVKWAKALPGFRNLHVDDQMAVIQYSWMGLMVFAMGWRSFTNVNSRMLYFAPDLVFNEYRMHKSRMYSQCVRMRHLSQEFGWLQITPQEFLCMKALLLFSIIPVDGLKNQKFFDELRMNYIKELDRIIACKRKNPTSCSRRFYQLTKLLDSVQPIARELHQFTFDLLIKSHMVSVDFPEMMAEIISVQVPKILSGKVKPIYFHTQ
In short: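 VCaP cells, 30,000/well, grown ≥3 days in phenol red-free RPMI with 5% charcoal-stripped FBS; compound added in 0.1% DMSO with 0.1 nM R1881, 7 half-log doses, 24 h. Lysate AR quantified by PathScan sandwich ELISA, HRP/TMB read at 450 nm, giving DC50 and Dmax.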

Androgen Receptor [3] = molecular target: T2, Androgen Receptor (Homo sapiens, UniProt P10275+P40337, T878A); assay: Androgen Receptor ELISA assay (PathScan AR ELISA) in LNCaP cells: AR degradation, Dmax and DC50; format: cell-based
T2 construct: Compounds have been evaluated in this assay in LNCaP and/or VCaP cells utilizing similar protocols; endogenous in cells; host or cells: LNCaP cells

VCaP cells = assay: VCaP cell proliferation assay (Cell Titer Glo), GI50; format: cell-based; details: for GI50: Homo sapiens, VCaP cells, 0.1 nM R1881, Table 37, read-out: GI50, Inhibition of VCaP Proliferation
Protocol: 2. VCaP Cell Proliferation Assay.
VCaP cells are plated 7,500/well 200 μL/well in VCaP assay medium [Phenol red free RPMI (Gibco Cat #11835-030); 5% Charcoal Stripped (Dextran treated) FBS (Omega Scientific, Cat #FB-04); Pen/Strep Life Technologies (Gibco Cat #: 10378-016); 0.1 nM R1881 (Sigma, Cat #R0908) is added upon the start of the assay, not during initial plating of the cells).
The assay was performed as follows: the cells are grown for a minimum of 3 days to deplete androgens; dosing of PROTACs and R1881 is performed as for AR ELISA; the baseline reading of Cell Titer Glo can be performed on day of dosing.
VCaP cells with 0.1 nM R1881 will double once in 4 days. Gently draw off 110 μL of media so as not to disturb the adherent cells; add 110 μL of CTG; incubate with slow shaking for 20 minutes; and read luminescence on a plate reader.

[4] = PROTAC prodrug oral pharmacokinetics in CD-1 mice; format: in vivo; details: male, mouse, plasma, 10 mg/kg, 10 mpk PO; for AUC: read-out: Plasma Exposure Prodrug AUC; for Cmax: read-out: Plasma Exposure Prodrug Cmax
Protocol: as §1, §2, §3, §4, §5

VCaP xenograft = assay: Tumor growth inhibition in VCaP xenograft model; format: in vivo; details: VCaP cells s.c. in castrated CB17 scid mice; enzalutamide PO, QD, 30 mpk; Example 163 IP, QD, 30, 10 and 3 mpk
Excerpt: FIG. 6. Tumor growth inhibition in VCaP xenograft model. VCaP cells were implanted into CB17 scid mice subcutaneously. Once the tumors were palpable, the mice were castrated, leading to temporary tumor stasis.
7. Tumor Growth Inhibition in VCaP Xenograft Model.
VCaP cells were implanted into CB17 scid mice subcutaneously. Once the tumors were palpable, the mice were castrated, leading to temporary tumor stasis.

[5] = highest percentage of Androgen Receptor degradation observed, VCaP cells (Table 32)
[6] = concentration that caused 50% Androgen Receptor degradation, VCaP cells (Table 32)
[7] = vehicle ESP-4, prodrug measured
[8] = vehicle ESD-4, prodrug measured

T2 sequence (P10275 whole entry T878A): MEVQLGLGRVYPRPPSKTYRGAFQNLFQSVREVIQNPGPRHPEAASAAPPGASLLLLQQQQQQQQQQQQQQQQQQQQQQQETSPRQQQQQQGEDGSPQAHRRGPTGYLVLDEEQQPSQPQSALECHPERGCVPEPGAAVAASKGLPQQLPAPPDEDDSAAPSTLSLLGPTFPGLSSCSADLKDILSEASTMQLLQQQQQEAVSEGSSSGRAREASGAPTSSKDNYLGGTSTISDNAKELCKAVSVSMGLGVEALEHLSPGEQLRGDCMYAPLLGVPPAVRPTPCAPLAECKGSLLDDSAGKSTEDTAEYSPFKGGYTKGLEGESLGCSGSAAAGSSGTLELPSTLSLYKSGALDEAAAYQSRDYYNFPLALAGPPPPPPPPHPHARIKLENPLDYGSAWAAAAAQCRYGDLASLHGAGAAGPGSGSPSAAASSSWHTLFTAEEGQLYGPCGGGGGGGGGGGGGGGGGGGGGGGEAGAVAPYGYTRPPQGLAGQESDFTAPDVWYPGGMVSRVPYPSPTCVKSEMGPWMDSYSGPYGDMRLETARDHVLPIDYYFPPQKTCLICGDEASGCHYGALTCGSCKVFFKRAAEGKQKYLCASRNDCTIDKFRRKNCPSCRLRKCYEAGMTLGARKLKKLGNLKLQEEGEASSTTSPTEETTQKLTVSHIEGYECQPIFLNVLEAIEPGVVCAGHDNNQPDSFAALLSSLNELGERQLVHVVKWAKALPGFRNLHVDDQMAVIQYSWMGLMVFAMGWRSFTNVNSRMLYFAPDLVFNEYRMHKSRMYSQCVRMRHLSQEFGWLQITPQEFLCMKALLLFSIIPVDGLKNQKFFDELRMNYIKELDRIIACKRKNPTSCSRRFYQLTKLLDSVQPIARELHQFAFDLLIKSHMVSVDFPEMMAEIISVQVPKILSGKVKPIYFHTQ
T2 sequence (P40337 whole entry): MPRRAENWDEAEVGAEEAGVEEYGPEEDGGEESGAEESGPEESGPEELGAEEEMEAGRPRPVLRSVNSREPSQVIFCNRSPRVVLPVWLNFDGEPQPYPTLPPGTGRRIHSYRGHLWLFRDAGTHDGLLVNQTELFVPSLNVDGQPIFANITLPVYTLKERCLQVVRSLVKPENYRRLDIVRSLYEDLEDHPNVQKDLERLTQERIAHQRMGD
T2 sequence (Q15369 whole entry partner): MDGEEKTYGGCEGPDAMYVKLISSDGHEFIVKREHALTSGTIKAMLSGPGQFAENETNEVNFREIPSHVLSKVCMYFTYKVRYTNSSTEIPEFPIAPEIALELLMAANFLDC
T2 sequence (Q15370 whole entry partner): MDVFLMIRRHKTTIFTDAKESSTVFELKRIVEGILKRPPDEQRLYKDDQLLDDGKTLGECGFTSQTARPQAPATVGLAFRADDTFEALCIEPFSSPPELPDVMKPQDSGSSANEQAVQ

Row | GI50 (VCaP cells) [nM] | Dmax (Androgen Receptor [2]; [5]) [%] | AUC [4, 7] [ng·h/mL] | Cmax [4, 7] [ng/mL] | DC50 (Androgen Receptor [2]; VCaP cells, Table 35) [nM] | Dmax (Androgen Receptor [2]; VCaP cells, Table 35) [%] | SMILES | other results
1 |  |  |  |  |  |  | Cc1ncsc1-c1ccc(CNC(=O)[C@@H]2C[C@@H](O)CN2C(=O)[C@@H](NC(=O)COCCCOCCN2CCC(c3ccc(N4C(=S)N(c5ccc(C#N)c(C(F)(F)F)c5)C(=O)C4(C)C)cc3)CC2)C(C)(C)C)cc1 [Example 80, (2S,4R)-1-((S)-2-(2-(3-(2-(4-(4-(3-(4-cyano-3-(trifluoromethyl)phenyl)-5,5-dimethyl-4-oxo-2-thioxoimidazolidin-1-yl)phenyl)piperidin-1-yl)ethoxy)propoxy)acetamido)-3,3-dimethylbutanoyl)-4-hydroxy-N-(4-(4-methylthiazol-5-yl)benzyl)pyrrolidine-2-carboxamide] | AUC(0-t) ([1]; vehicle ELP-1): 2530 ng·h/mL; Cmax ([1]; vehicle ELP-1): 180 ng/mL; Dmax (Androgen Receptor [2]): 26 to 50%; DC50 (Androgen Receptor [3]; concentration that caused 50% Androgen Receptor degradation): > 501 nM; Dmax (Androgen Receptor [3]; highest percentage of Androgen Receptor degradation observed): 51 to 70%
2 | ≤ 50 | > 71 |  |  |  |  | CC(C)(C)[C@H](NC(=O)COCCCCCOc1ccc(C(=O)N[C@H]2C(C)(C)[C@H](Oc3ccc(C#N)c(Cl)c3)C2(C)C)cc1)C(=O)N1C[C@H](O)C[C@H]1C(=O)NCc1ccc(-c2cncs2)cc1 [Example 150, (2S,4R)-1-[(2S)-3,3-dimethyl-2-(2-{[5-(4-{[trans-3-(3-chloro-4-cyanophenoxy)-2,2,4,4-tetramethylcyclobutyl]carbamoyl}phen-oxy)pentyl]oxy}acetamido)butanoyl]-4-hydroxy-N-{[4-(1,3-thiazol-5-yl)phenyl]methyl}pyrrolidine-2-carboxamide] | AUC(0-t) ([1]; vehicle ESD-1): 40200 ng·h/mL; Cmax ([1]; vehicle ESD-1): 2750 ng/mL; DC50 (Androgen Receptor [2]; [6]): < 50 nM
3 | ≤ 50 | > 71 |  |  |  |  | Cc1ncsc1-c1ccc([C@H](C)NC(=O)[C@@H]2C[C@@H](O)CN2C(=O)[C@@H](NC(=O)COCCCCCNc2ccc(C(=O)N[C@H]3C(C)(C)[C@H](Oc4ccc(C#N)c(Cl)c4)C3(C)C)cc2)C(C)(C)C)cc1 [Example 174, (2S,4R)-1-[(2S)-3,3-dimethyl-2-[2-({5-[(4-{[trans-3-(3-chloro-4-cyanophenoxy)-2,2,4,4-tetramethylcyclobutyl]carbamoyl}phenyl)amino]pentyl}oxy)acetamido]butanoyl]-4-hydroxy-N-[(1S)-1-[4-(4-methyl-1,3-thiazol-5-yl)phenyl]ethyl]pyrrolidine-2-carboxamide] | AUC(0-t) ([1]; vehicle ESD-1): 35100 ng·h/mL; Cmax ([1]; vehicle ESD-1): 1900 ng/mL; DC50 (Androgen Receptor [2]; [6]): < 50 nM
4 | ≤ 50 | > 71 |  |  |  |  | Cc1ncsc1-c1ccc(CNC(=O)[C@@H]2C[C@@H](O)CN2C(=O)[C@@H](NC(=O)COCCOc2ccc(-c3ccc(C(=O)N[C@H]4C(C)(C)[C@H](Oc5ccc(C#N)c(Cl)c5)C4(C)C)cc3)cc2)C(C)(C)C)cc1 [Example 182, (2S,4R)-1-[(2S)-3,3-dimethyl-2-(2-{2-[4-(4-{[trans-3-(3-chloro-4-cyanophenoxy)-2,2,4,4-tetramethylcyclobutyl]carbamoyl}phenyl)phenoxy]ethoxy}acetamido)butanoyl]-4-hydroxy-N-{[4-(4-methyl-1,3-thiazol-5-yl)phenyl]methyl}pyrrolidine-2-carboxamide] | AUC(0-t) ([1]; vehicle ELP-1): 29200 ng·h/mL; Cmax ([1]; vehicle ELP-1): 1530 ng/mL
5 |  |  | 49 | 12 |  |  | Cc1ncsc1-c1ccc([C@H](C)NC(=O)[C@@H]2C[C@@H](OC(=O)[C@@H](N)C(C)C)CN2C(=O)[C@@H](NC(=O)COCCCCCNc2ccc(C(=O)N[C@H]3C(C)(C)[C@H](Oc4ccc(C#N)c(Cl)c4)C3(C)C)cc2)C(C)(C)C)cc1 [Example 463] | 
6 |  |  | 118 | 48 | > 501 | > 71 | Cc1ncsc1-c1ccc([C@H](C)NC(=O)[C@@H]2C[C@@H](O)CN2C(=O)[C@@H](NC(=O)COCCCCCNc2ccc(C(=O)N[C@H]3C(C)(C)[C@H](Oc4ccc(C#N)c(C(F)(F)F)n4)C3(C)C)cc2)C(C)(C)C)cc1 [Example 464] | 
7 |  |  |  |  | < 50 | > 71 | CC(=O)O[C@@H]1C[C@@H](C(=O)N[C@@H](C)c2ccc(-c3scnc3C)cc2)N(C(=O)[C@@H](NC(=O)COCCCCCNc2ccc(C(=O)N[C@H]3C(C)(C)[C@H](Oc4ccc(C#N)c(Cl)c4)C3(C)C)cc2)C(C)(C)C)C1 [Example 469] | AUC [4, 8]: 353 ng·h/mL; Cmax [4, 8]: 181 ng/mL
8 |  |  | 469 | 346 | < 50 | > 71 | Cc1ncsc1-c1ccc([C@H](CN(C)C)NC(=O)[C@@H]2C[C@@H](O)CN2C(=O)[C@@H](NC(=O)COCCCCCOc2ccc(C(=O)N[C@H]3C(C)(C)[C@H](Oc4ccc(C#N)c(Cl)c4)C3(C)C)cc2)C(C)(C)C)cc1 [Example 470] | 
9 |  |  |  |  |  |  | CNC(=O)c1ccc(N2C(=S)N(c3ccc(C#N)c(C(F)(F)F)c3)C(=O)C2(C)C)cc1F [enzalutamide, reference compound] | Tumor growth inhibition (VCaP xenograft): Tumor growth inhibition was observed; anti-proliferative activity (VCaP cells; LNCap and VCaP cell systems, increasing concentrations of AR agonist R1881 and cells containing the AR F876L mutation): inactive
